Test results published in PMC11703096 (PLOS ONE, 2025).

B1: vaccinia virus A32 protein with an N-terminal thioredoxin tag and a C-terminal hexahistidine tag (A32WT) (enzyme)
chain: MNCFQEKQFSRENLLKMPFRMVLTGGSGSGKTIYLLSLFSTLVKKYKHIFLFTPVYNPDYDGYIWPNHINFVSSQESLEYNLIRTKSNIEKCIAVAQNHKKSAHFLLIFDDVGDKLSKCNTLIEFLNFGRHLNTSIILLCQTYRHVPILGRANITHFCSFNISISDAENMLRSMPVKGKRKDILNMLNMIQTARSNNRLAIIIEDSVFCEGELRICTDTADKDVIEQKLNIDILVNQYSHMKKNLNAILESKKTKLCNSDQSSSSKNVSS

Key:
[1] = molecular target: T1, A32WT (vaccinia virus A32, putative genome packaging ATPase) (Vaccinia virus WR, UniProt P68615, K31A); conditions: read-out: A32K31A / - / DNA
T1 construct: gene OPG160

[2] = molecular target: T2, A32WT (vaccinia virus A32, putative genome packaging ATPase) (Vaccinia virus WR, UniProt P68615, L234K/Q237A); conditions: read-out: A32LL234K_Q237A / - / DNA
T2 construct: gene OPG160

native gel or EMSA = molecular target: the molecule itself; experiment: native gel or EMSA

| Molecule | Km [1] [µM] | Km [2] [µM] | binding result (native gel or EMSA) |
| --- | --- | --- | --- |
| Nc1ncnc2c1ncn2[C@@H]1O[C@H](COP(=O)(O)OP(=O)(O)OP(=O)(O)O)[C@@H](O)[C@H]1O [ATP] | 0.2 | 0.66 | – |
| B1 | – | – | binds |
